From patent US5849731A, “Indole derivatives and medical application thereof” (Toray Industries, Inc., priority 1995, dated 1998) come the findings set out here.

The structures appear in SMILES notation. Read-outs that look alike come from different tables or passages of the source.

The target of one assay is T1, δ-opioid (Mus musculus, UniProt P32300).
T1 construct: Each of the vas deferens isolated from the mice was hung in a Magnus tube; from tissue; host or cells: isolated vas deferens of male ddy strain mice
In words: δ-opioid agonism: inhibition of electrically stimulated mouse vas deferens (MVD) contraction, antagonism by NTI. The format is biochemical, mouse (male ddy strain). The following applies: for Ke: against NTI added 20 minutes before, Ke=[NTI Concentration]/[(IC50 ratio)-1]. Also noted: Ke: unit not given here. The procedure:
Using mouse vas deferens (MVD), antagonistic compounds were examined for antagonism against a δ-opioid agonist DPDPE, and agonistic compounds were examined for inhibitory activity against MVD contraction by electric stimulation, and for antagonism by a δ-opioid antagonist NTI.
Male ddy strain mice were used in this experiment. Each of the vas deferens isolated from the mice was hung in a Magnus tube which was filled with a Krebes-Henseleit solution (NaCl […]; KCl 4.7 mM; CaCl2 2.5 mM; KH2 PO4 1.1 mM; NaHCO3 25 mM; glucose 11 mM), and aerated with a gas of 5% carbon dioxide and 95% oxygen and maintained at 37° C. Electric stimulation was applied through upper and lower ring-shaped platinum electrodes at 0.1 Hz and 5.0 mS. Tissue contraction was recorded on a polygraph using an isometric transducer.
Initially, a sample compound was added in a cumulative manner to determine the IC50 value (concentration for 50% inhibition of contraction induced by electric stimulation). Next, […] was added to the system beforehand, and 20 minutes later, the sample compound was added in a cumulative manner. According to the above procedure, the ratio of the IC50 values of the sample compound in the presence of NTI to that in the absence of NTI was determined, and the Ke value was calculated in accordance with the following equation.
Ke=[NTI Concentration]/[(IC50 ratio)-1]

The next assay concerns acetic acid writhing. Put plainly: Analgesic action, acetic acid writhing test in mouse. The following applies: sc, dorsal-subcutaneous, 15 minutes before acetic acid, writhing reactions over 10 minutes. The assay is classed as in vivo, mouse (ddY strain). The procedure: Evaluation of Analgesic Action by Acetic Acid Writhing Test in Mouse
Five-week-old ddY strain mice were subjected to this experiment. A 0.6% acetic acid solution was intraperitoneally administered at a volume of 0.1 ml/10 g·.body weight. Analgesic activity was evaluated with an index which was the number of writhing reactions occurring over 10 minutes from 10 minutes after administration. The drug to be evaluated was dorsal-subcutaneously administered 15 minutes before the administration of acetic acid.
(In general: An intraperitoneal irritant provokes the stretching counted in writhing tests.)

T1 sequence (P32300 whole entry): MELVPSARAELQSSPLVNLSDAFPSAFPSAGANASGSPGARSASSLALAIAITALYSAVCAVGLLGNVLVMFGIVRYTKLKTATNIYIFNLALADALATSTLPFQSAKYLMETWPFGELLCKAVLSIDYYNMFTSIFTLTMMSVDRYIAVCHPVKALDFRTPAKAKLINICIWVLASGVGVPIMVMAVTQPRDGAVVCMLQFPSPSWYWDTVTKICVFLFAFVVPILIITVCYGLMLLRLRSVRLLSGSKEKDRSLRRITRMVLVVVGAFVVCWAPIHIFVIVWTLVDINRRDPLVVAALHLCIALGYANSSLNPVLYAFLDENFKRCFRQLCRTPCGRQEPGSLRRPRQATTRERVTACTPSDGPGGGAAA

As for `C=CCCN1CC[C@]23c4c5ccc(O)c4O[C@H]2c2c(c4cccc6c4n2CCC6)C[C@@]3(O)[C@H]1C5` [Compound 28, 17-(3-butenyl)-6,7-didehydro-4,5α-epoxy-3,14β-dihydroxy-1',7'-trimethylene-6,7,2',3'-indolomorphinan], on δ-opioid, the IC50 came to 15.8 nM and the Ke turned out to be 0.05. Further, the ED50 with acetic acid writhing was found to be 16.7 mg/kg.
As for `CN1CC[C@]23c4c5ccc(O)c4O[C@H]2c2c(c4cccc6c4n2CCC6)C[C@@]3(O)[C@H]1C5` [Compound 55, 17-Methyl-6,7-didehydro-4,5α-epoxy-3,14β-dihydroxy-1',7'-trimethylene-6,7,2',3'-indolomorphinan], at δ-opioid, inhibition was half-maximal at 18.2 nM (IC50) and the Ke is recorded as 0.21.
For the molecule `Oc1ccc2c3c1O[C@H]1c4c(c5cccc6c5n4CCC6)C[C@@]4(O)[C@@H](C2)N(CC2CCC2)CC[C@]314` [Compound 56, 17-cyclobutylmethyl-6,7-didehydro-4,5α-epoxy-3,14β-dihydroxy-1',7'-trimethylene-6,7,2',3'-indolomorphinan], at δ-opioid, the midpoint of inhibition, the IC50, lay at 2.96 nM and the Ke turned out to be 6.21.
Turning to `Oc1ccc2c3c1O[C@H]1c4c(c5cccc6c5n4CCC6)C[C@@]4(O)[C@@H](C2)N(CCc2ccccc2)CC[C@]314` [Compound 57, 17-phenethyl-6,7-didehydro-4,5α-epoxy-3,14β-dihydroxy-1',7'-trimethylene-6,7,2',3'-indolomorphinan], on δ-opioid, the Ke came out at 0.06. For the same molecule, at δ-opioid (concentration for 50% inhibition of MVD contraction induced by electric stimulation), the IC50 stood at 9.71 nM.
Regarding `Oc1ccc2c3c1O[C@H]1c4c(c5cccc6c5n4CCC6)C[C@@]4(O)[C@@H](C2)N(CCc2cccs2)CC[C@]314` [Compound 65, 17-(thiophene-2-ylethyl)-6,7-didehydro-4,5α-epoxy-3,14β-dihydroxy-1',7'-trimethylene-6,7,2',3'-indolomorphinan], on δ-opioid, half-maximal inhibition (IC50) was put at 33.9 nM and the Ke stood at 0.03.

What is called IC50 is the concentration at which inhibition is half-maximal. A word on the ED50: it is the dose that gives a 50% effect, or the effect in half of the subjects.
